Assay results: US20030068615A1, “Polypeptides that bind HIV gp120 and related nucleic acids, antibodies, compositions, and methods of use” (priority 1999, published 2003)
Where two headings read alike, the source gives them in different places.

Molecular target: HIV-1LAI envelope gp120 (Human immunodeficiency virus type 1 group M subtype B, UniProt P03377)
Type: binding
Conditions: for number of radioactive decays (counts) counted: human CD4 21-mer scan, empty control 2075; for Binding Results For Window Length (counts bound-background), 9 / Binding Results For Window Length (counts bound-background), 12 / Binding Results For Window Length (counts bound-background), 15 / Binding Results For Window Length (counts bound-background), 18: STRL33 amino terminus; for Binding Results For Window Length (counts bound-background), 9: 9-mer starting at the first residue of the printed sequence; for Counts per 20′ Average-background: CCR5 18-mer scan, radiolabeled HIV-1LAI gp120; for Binding Results For Window Length (counts bound-background), 12: 12-mer starting at the first residue of the printed sequence; for Binding Results For Window Length (counts bound-background), 15: 15-mer starting at the first residue of the printed sequence; for Binding Results For Window Length (counts bound-background), 18: 18-mer starting at the first residue of the printed sequence
[1] = STRL33 18-mer scan, background subtracted, first of two count columns
[2] = STRL33 18-mer scan, background subtracted, second of two count columns
[3] = Panel D, 9-mers and 12-mers of CD4, empty control […]
[4] = Panel B, 15-mers and 18-mers of CD4, empty control 575
[5] = Panel E, 9-mers and 12-mers of CD4, empty control 571
[6] = Panel C, 15-mers and 18-mers of CD4, empty control 556
[7] = Panel A, 21-mers of CD4, empty control 515 and 617
[8] = CXCR4 18-mer scan, background subtracted, empty control 0
[9] = CXCR4 18-mer scan, empty control 412

PMALIVLGGVAGLLLFIGLGI
number of radioactive decays (counts) counted: 3067 counts

PQIIYGNVFNLDKLICGY
radioactive counts recorded in twenty minutes [1]: −18.5 counts
radioactive counts recorded in twenty minutes [2]: −37.5 counts

PVLYAFVSLKFRKNFWKL [STRL33 segment 285-302]
radioactive counts recorded in twenty minutes [1]: 1859.5 counts
radioactive counts recorded in twenty minutes [2]: 2147.5 counts

QAERASSSKSWITFDLINKEV [human CD4 241-261]
number of radioactive decays (counts) counted: 2588 counts

QAFLQFSKV
Binding Results For Window Length (counts bound-background), 9 (background subtracted): 2600 counts

QAKRMTWGKVTSLLIWVI
radioactive counts recorded in twenty minutes [1]: −71.5 counts
radioactive counts recorded in twenty minutes [2]: −31.5 counts

QALPQYAGSGNLTLALEAKTG [human CD4 286-306]
number of radioactive decays (counts) counted: 2364 counts

QAMQVTETLGMTHCCINP [CCR5 segment 277-]
Counts per 20′ Average-background (background subtracted): 81 counts per 20′

QEAPERASSVYTRSTGEQ [CCR5 segment 329-]
Counts per 20′ Average-background (background subtracted): 84 counts per 20′

QEEHQAFLQFSK
Binding Results For Window Length (counts bound-background), 9 (background subtracted): 1109 counts
Binding Results For Window Length (counts bound-background), 12 (background subtracted): 5672 counts

QEFFGLNNCSSSNRLDQA [CCR5 segment 261-]
Counts per 20′ Average-background (background subtracted): 63 counts per 20′

QGNFPLIIK
COUNTS of radiolabeled gp120 retained [3]: 508 counts

QGNFPLIIKNLK
COUNTS of radiolabeled gp120 retained [3]: 533 counts

QGNFPLIIKNLKIED
COUNTS of radiolabeled gp120 retained [4]: 509 counts

QGNFPLIIKNLKIEDSDT
COUNTS of radiolabeled gp120 retained [4]: 564 counts

QGQSLTLTL
COUNTS of radiolabeled gp120 retained [3]: 594 counts

QKASSIVYK
COUNTS of radiolabeled gp120 retained [5]: 494 counts

QKASSIVYKKEG
COUNTS of radiolabeled gp120 retained [5]: 596 counts

QKASSIVYKKEGEQV
COUNTS of radiolabeled gp120 retained [6]: 519 counts

QKASSIVYKKEGEQVEFS
COUNTS of radiolabeled gp120 retained [6]: 602 counts

QKASSIVYKKEGEQVEFSFPL
COUNTS of radiolabeled gp120 retained [7]: 24959 counts

QKEEVQLLV
COUNTS of radiolabeled gp120 retained [3]: 636 counts

QKEEVQLLVFGL
COUNTS of radiolabeled gp120 retained [3]: 1785 counts

QKEEVQLLVFGLTAN
COUNTS of radiolabeled gp120 retained [4]: 3770 counts

QKEEVQLLVFGLTANSDT
COUNTS of radiolabeled gp120 retained [4]: 3671 counts

QKHIAKRFCKCCSIFQQE [CCR5 segment 313-]
Counts per 20′ Average-background (background subtracted): 23 counts per 20′

QKHRSLKIIFLVMAVFLL [STRL33 segment 225-242]
radioactive counts recorded in twenty minutes [1]: 810.5 counts
radioactive counts recorded in twenty minutes [2]: 814.5 counts

QKINVKQIAARLLPPLYS [CCR5 segment 21-38]
Counts per 20′ Average-background (background subtracted): 20 counts per 20′

QKKVEFKID
COUNTS of radiolabeled gp120 retained [5]: 575 counts

QKKVEFKIDIVV
COUNTS of radiolabeled gp120 retained [5]: 595 counts

QKKVEFKIDIVVLAF
COUNTS of radiolabeled gp120 retained [6]: 1333 counts

QKKVEFKIDIVVLAFQKA
COUNTS of radiolabeled gp120 retained [6]: 1013 counts

QKRKALKTTVILILAFFA [CXCR4 segment 233-250]
radioactive counts recorded in twenty minutes [8]: 283 counts
radioactive counts recorded in twenty minutes [9]: 695 counts

QLLVFGLTA
COUNTS of radiolabeled gp120 retained [3]: 822 counts

QLLVFGLTANSD
COUNTS of radiolabeled gp120 retained [3]: 721 counts

QLLVFGLTANSDTHL
COUNTS of radiolabeled gp120 retained [4]: 865 counts

QLLVFGLTANSDTHLLQG
COUNTS of radiolabeled gp120 retained [4]: 574 counts

QLQKNLTCEVWGPTSPKLMLS [human CD4 321-341]
number of radioactive decays (counts) counted: 1856 counts

QNQKKVEFK
COUNTS of radiolabeled gp120 retained [5]: 537 counts

QNQKKVEFKIDI
COUNTS of radiolabeled gp120 retained [5]: 559 counts

QNQKKVEFKIDIVVL
COUNTS of radiolabeled gp120 retained [6]: 636 counts

QNQKKVEFKIDIVVLAFQ
COUNTS of radiolabeled gp120 retained [6]: 917 counts

QRPRKLLAEKVVYVGVWI
radioactive counts recorded in twenty minutes [8]: 127 counts
radioactive counts recorded in twenty minutes [9]: 539 counts

QVEFSFPLA
COUNTS of radiolabeled gp120 retained [5]: 1205 counts

QVEFSFPLAFTV
COUNTS of radiolabeled gp120 retained [5]: 1636 counts

QVEFSFPLAFTVEKL
COUNTS of radiolabeled gp120 retained [6]: 2047 counts

QVEFSFPLAFTVEKLTGS
COUNTS of radiolabeled gp120 retained [6]: 736 counts

QVEFSFPLAFTVEKLTGSGEL
COUNTS of radiolabeled gp120 retained [7]: 741 counts

QVEFSFPLLA
Gp120 Bound (counts) (active CD4 fragments: 9-, 12-, 15-, 18- and 21-mers, background not subtracted): 1205 counts

QWDFGNTMCQLLTGLYFI [CCR5 segment 93-]
Counts per 20′ Average-background (background subtracted): 1019 counts per 20′

QWKSSEDNSKTFSASHNV
radioactive counts recorded in twenty minutes [1]: 464.5 counts
radioactive counts recorded in twenty minutes [2]: 533.5 counts

RCRHRRRQAERMSQIKRLLSE [human CD4 421-441]
number of radioactive decays (counts) counted: 2075 counts

RLHLSVADLLFVITLPFW [CXCR4 segment 77-94]
radioactive counts recorded in twenty minutes [8]: 136 counts
radioactive counts recorded in twenty minutes [9]: 548 counts

RMSQIKRLLSEKKTCQCPHRF
number of radioactive decays (counts) counted: 2020 counts

RNEKKRHRAVRLIFTIMI [CCR5 segment 225-]
Counts per 20′ Average-background (background subtracted): 23 counts per 20′

RNYLLVFFQKHIAKRFCK
Counts per 20′ Average-background (background subtracted): 65 counts per 20′

RRQAERMSQLKRLLSEKKTCQ [human CD4, printed 42E-446]
number of radioactive decays (counts) counted: 1607 counts

SCYCIIISKLSHSKGHQK
radioactive counts recorded in twenty minutes [8]: 259 counts
radioactive counts recorded in twenty minutes [9]: 671 counts

SDNYTEEMGSGDYDSMKE [CXCR4 segment 9-26]
radioactive counts recorded in twenty minutes [8]: 43 counts
radioactive counts recorded in twenty minutes [9]: 455 counts

SDTHLLQGQ
COUNTS of radiolabeled gp120 retained [3]: 526 counts

SDTHLLQGQSLT
COUNTS of radiolabeled gp120 retained [3]: 540 counts

SDTHLLQGQSLTLTL
COUNTS of radiolabeled gp120 retained [4]: 747 counts

SDTHLLQGQSLTLTLESP
COUNTS of radiolabeled gp120 retained [4]: 1260 counts

SDTYICEVE
COUNTS of radiolabeled gp120 retained [3]: 819 counts

SDTYICEVEDQK
COUNTS of radiolabeled gp120 retained [3]: 846 counts

SDTYICEVEDQKEEV
COUNTS of radiolabeled gp120 retained [4]: 993 counts

SDTYICEVEDQKEEVQLL
COUNTS of radiolabeled gp120 retained [4]: 870 counts

SEDNSKTFSASHNVEATS [STRL33 segment 321-338]
radioactive counts recorded in twenty minutes [1]: 524.5 counts

SEPCQKINVKQIAARLLP [CCR5 segment 17-34]
Counts per 20′ Average-background (background subtracted): −44 counts per 20′

SFHYTIMVTEAIAYLRAC [STRL33 segment 265-282]
radioactive counts recorded in twenty minutes [1]: 761.5 counts
radioactive counts recorded in twenty minutes [2]: 1033.5 counts

SFPLAFTVE
COUNTS of radiolabeled gp120 retained [5]: 619 counts

SFPLAFTVEKLT
COUNTS of radiolabeled gp120 retained [5]: 528 counts

SFPLAFTVEKLTGSG
COUNTS of radiolabeled gp120 retained [6]: 565 counts

SFPLAFTVEKLTGSGELW
COUNTS of radiolabeled gp120 retained [6]: 656 counts

SFPLAFTVEKLTGSGELWWQA
COUNTS of radiolabeled gp120 retained [7]: 2284 counts

SFWDSSQEEEQAFLQFSK
Binding Results For Window Length (counts bound-background), 9 (background subtracted): 304 counts
Binding Results For Window Length (counts bound-background), 12 (background subtracted): 303 counts
Binding Results For Window Length (counts bound-background), 15 (background subtracted): 969 counts
Binding Results For Window Length (counts bound-background), 18 (background subtracted): 4537 counts

SIFQQEAPERASSVYTRS [CCR5 segment 325-]
Counts per 20′ Average-background (background subtracted): 100 counts per 20′

SITEALAFFHCCLNPILY [CXCR4 segment 285-302]
radioactive counts recorded in twenty minutes [8]: 188 counts
radioactive counts recorded in twenty minutes [9]: 600 counts

SIVYKKEGE
COUNTS of radiolabeled gp120 retained [5]: 566 counts

SIVYKKEGEQVE
COUNTS of radiolabeled gp120 retained [5]: 543 counts

SIVYKKEGEQVEFSF
COUNTS of radiolabeled gp120 retained [6]: 651 counts

SIVYKKEGEQVEFSFPLA
COUNTS of radiolabeled gp120 retained [6]: 771 counts

SIVYKKEGEQVEFSFPLAFTV
COUNTS of radiolabeled gp120 retained [7]: 8165 counts

SIYTSDNYTEEMGSGDYD [CXCR4 segment 5-22]
radioactive counts recorded in twenty minutes [8]: 71 counts
radioactive counts recorded in twenty minutes [9]: 483 counts

SKGHQKRKALKTTVILIL [CXCR4 segment 229-246]
radioactive counts recorded in twenty minutes [8]: 140 counts
radioactive counts recorded in twenty minutes [9]: 552 counts

SKTFSASHNVEATSMFQL [STRL33 segment 325-342]
radioactive counts recorded in twenty minutes [1]: 1524.5 counts
radioactive counts recorded in twenty minutes [2]: 1239.5 counts

SLKIIFLVMAVFLLTQMP [STRL33 segment 229-246]
radioactive counts recorded in twenty minutes [1]: 612.5 counts
radioactive counts recorded in twenty minutes [2]: 853.5 counts

SLKILSKGKRGGHSSVST [CXCR4 segment 325-342]
radioactive counts recorded in twenty minutes [8]: 285 counts
radioactive counts recorded in twenty minutes [9]: 697 counts

SLKLENKEAKVSKREKAVWVL [human CD4 341-361]
number of radioactive decays (counts) counted: 1663 counts

SQEEHQAFLQFS
Binding Results For Window Length (counts bound-background), 9 (background subtracted): 647 counts
Binding Results For Window Length (counts bound-background), 12 (background subtracted): 7512 counts

SQKEGLHYTCSSHFPYSQ [CCR5 segment 169-]
Counts per 20′ Average-background (background subtracted): 304 counts per 20′

SQYQFWKNFQTLKIVILG [CCR5 segment 185-]
Counts per 20′ Average-background (background subtracted): 1572 counts per 20′

SRGSSLKILSKGKRGGHS [CXCR4 segment 321-338]
radioactive counts recorded in twenty minutes [8]: 169 counts
radioactive counts recorded in twenty minutes [9]: 581 counts

SSFNDSSQEEHQAFLQFS [STRL33 segment 13-30]
radioactive counts recorded in twenty minutes [1]: 2689.5 counts
radioactive counts recorded in twenty minutes [2]: 2757.5 counts
Binding Results For Window Length (counts bound-background), 9 (background subtracted): 243 counts
Binding Results For Window Length (counts bound-background), 12 (background subtracted): 277 counts
Binding Results For Window Length (counts bound-background), 15 (background subtracted): 902 counts
Binding Results For Window Length (counts bound-background), 18 (background subtracted): 6038 counts

SSIVYKKEG
COUNTS of radiolabeled gp120 retained [5]: 515 counts

SSIVYKKEGEQV
COUNTS of radiolabeled gp120 retained [5]: 615 counts
